Series [1] in a line: Sedative action: Irwin Test (passivity, ataxia). The conditions noted are these: for Atax. (ataxia, alterations of coordination in locomotion), evaluated between 0 and 3 / Pas. (passivity, sedation, prostation), evaluation between 0 and 3 / Effect: toxic: rat, i.p.; for Atax. (ataxia, alterations of coordination in locomotion), evaluated between 0 and 3 / Pas. (passivity, sedation, prostation), evaluation between 0 and 3: 1, 2 and 3 hours after treatment.
Description: Pas.: Passivity, sedation, prostation. Quantitative evaluation between 0 and 3. They were performed 1, 2 and 3 hours after the treatment.
Atax.: Ataxia, the alterations of coordination in locomotion were evaluated. They were evaluated between 0 and 3. They were performed 1, 2 and 3 hours after the treatment.
Sedative action: 1) Irwin Test

Another series concerns death induced by 48/80. Nature of the series: "In vivo" antihistaminic activity: protection from death induced by compound 48/80 in the rat. The following applies: for ED50: ip, 4 h, i.p., rat, 48/80 0.5 mg/kg i.v. after 60 minutes, survival four hours after injection, read-out: ED-50 (dose capable of protecting 50% of the animals from death induced by 48/80). The protocol: The antihistaminic activity was studied by determining the protection in the face of the mortality used by the product 48/80 in the rat. This test was performed in accordance with the technique described by C. J. E. Niemegeers et cols. (Arch. int. Pharmacodyn., 234, 164-176 (1978). The products according to the present invention are administered intra-peritonially to rats. After 60 minutes the compound 48/80 is administered (0.5 mg/kg, i.v.).
The protective activity is defined as the survival of the rats four hours after the i.v. injection of 48/80.
The activity of the products was studied at several doses in order to determine the dose capable of protecting 50% of the animals (ED-50).
"In vivo" antihistaminic activity Protection from death induced by 48/80

The nature of series [2]: Sedative effect: potentiation of the sleep time induced by pentobarbital. The conditions noted are these: for Potentiation of the sleep time induced by pentobarbital (in words): oral, example 5 up to 160 mg/kg, difenhidramine at 20 mg/kg; for Potentiation sleep time: sodium pentobarbital 35 mg/kg s.c. one hour later.
Description: The study of the potentiation of the sleep time due to the pentobarbital was performed following the method described by L. E. Allen and cols. […] The products studied were administered orally. […] The sleep time was compared with a group of control animals, treated only with sodium pentobarbital.

`c1ccc(C(c2ccccc2)N2CCN(CCCCn3ccnc3)CC2)cc1` [Example 6, 1-[4-(4-Diphenylmethyl-1-piperazinyl)butyl]imidazole]: in series [1] (80 mg/kg), the “Atax. (ataxia, alterations of coordination in locomotion), evaluated between 0 and 3” value was found to be 0.3; the “Pas. (passivity, sedation, prostation), evaluation between 0 and 3” value (“Pas. (passivity, sedation, prostation)” for short) is on record as 1.3. Further, the ED50 in the series on death induced by 48/80 is 2.5 mg/kg.

On to `CN(C)CCOC(c1ccccc1)c1ccccc1` [Difenhidramine, reference compound], for which, in series [1] (40 mg/kg), the “Atax. (ataxia, alterations of coordination in locomotion), evaluated between 0 and 3” value is 0.9; the “Pas. (passivity, sedation, prostation)” value stood at 0. In addition, the “Potentiation of the sleep time induced by pentobarbital (in words)” value in series [2] is reported as “potentiates significantly the sleep time at the dose of 20 mg/kg”. Besides, the ED50 in the series with death induced by 48/80 is 5.4 mg/kg.

In the case of `Brc1cnn(CCCCN2CCN(C(c3ccccc3)c3ccccc3)CC2)c1` [Example 1, 4-Bromo-1-[4-(4-diphenylmethyl-1-piperazinyl)butyl]pyrazole], the “Atax. (ataxia, alterations of coordination in locomotion), evaluated between 0 and 3” value stood at 1.2 in series [1] (20 mg/kg) and 1.4 in series [1] (40 mg/kg). Further, the “Pas. (passivity, sedation, prostation)” value in series [1] (20 mg/kg) and in series [1] (40 mg/kg) was 0.8 in each case. Moreover, the “Effect: toxic” value in series [1] (80 mg/kg) is on record as “Toxic”. Further, the ED50 in the series on death induced by 48/80 was 3.2 mg/kg.

Consider `c1ccc(C(c2ccccc2)N2CCN(CCCCn3cncn3)CC2)cc1` [Example 7, 1-[4-(4-Diphenylmethyl-1-piperazinyl)butyl]-1,2,4,-triazole], for which the “Effect: toxic” value in series [1] (80 mg/kg) was “Toxic”. In the series with death induced by 48/80, the ED50 is 0.6 mg/kg.

Turning to `Cc1cnn(CCCCN2CCN(C(c3ccccc3)c3ccccc3)CC2)c1` [Example 5, 1-4-[4-(-Diphenylmethyl-1-piperazinyl)butyl]-4-methyl pyrazole], the “sedative action / side effects on the central nervous system (in words)” value in series [1] (in words) is “less sedative action”. Further, in series [1] (80 mg/kg), the “Atax. (ataxia, alterations of coordination in locomotion), evaluated between 0 and 3” value was found to be 0.5. Besides, the “Pas. (passivity, sedation, prostation)” value in series [1] (80 mg/kg) is 0.7. The Potentiation sleep time in series [2] (40 mg/kg p.o., N.S. (not significant)) is given as 15%; in series [2] (80 mg/kg p.o., N.S. (not significant)), 21%; in series [2] (160 mg/kg p.o., * significant vs control (p < 0.05)) it was 33%. For the same molecule, the “Potentiation of the sleep time induced by pentobarbital (in words)” value in series [2] is “does not potentiate the sleep time induced by the pentobarbital except at the dose of 160 mg/kg”. In addition, the “antihistaminic activity (in words)” value with death induced by 48/80 (compared with difenhidramine) is on record as “one of the most powerful of the products”. Besides, the ED50 in the series with death induced by 48/80 came to 0.62 mg/kg.

In the case of `Brc1cnn(CCCN2CCN(C(c3ccccc3)c3ccccc3)CC2)c1` [Example 3, 4-Bromo-1-[3-(4-diphenylmethyl-1-piperazinyl)propyl]pyrazole], in series [1] (80 mg/kg), the “Atax. (ataxia, alterations of coordination in locomotion), evaluated between 0 and 3” value turned out to be 0.7; the “Pas. (passivity, sedation, prostation)” value is 0. In addition, the ED50 in the series on death induced by 48/80 stood at 10 mg/kg.

With `O=C(O)c1cnn(CCCCN2CCN(C(c3ccccc3)c3ccccc3)CC2)c1` [Example 4, 1-[4-(4-Diphenylmethyl-1-piperazinyl)butyl]-4-carboxy pyrazole], in series [1] (80 mg/kg), the “Atax. (ataxia, alterations of coordination in locomotion), evaluated between 0 and 3” value stood at 1; the “Pas. (passivity, sedation, prostation)” value amounted to 0.9. Also, in series [1] (160 mg/kg), the “Atax. (ataxia, alterations of coordination in locomotion), evaluated between 0 and 3” value was found to be 1.6; the “Pas. (passivity, sedation, prostation)” value is reported as 1.2. In addition, in the series on death induced by 48/80, the ED50 was 0.62 mg/kg.

For the molecule `Clc1cnn(CCCCN2CCN(C(c3ccccc3)c3ccccc3)CC2)c1` [Example 2, 4-Chloro-1-[4-(-4-diphenylmethyl-1-piperazinyl)butyl]pyrazole], in series [1] (40 mg/kg), the “Atax. (ataxia, alterations of coordination in locomotion), evaluated between 0 and 3” value came out at 1.5; the “Pas. (passivity, sedation, prostation)” value worked out at 0.2. Also, in series [1] (80 mg/kg), the “Effect: toxic” value is “Tox”; the “Atax. (ataxia, alterations of coordination in locomotion), evaluated between 0 and 3” value is reported as 0.4; the “Pas. (passivity, sedation, prostation)” value is recorded as 0. Moreover, in the series with death induced by 48/80, the ED50 was 3 mg/kg.

In the case of `c1ccc(C(c2ccccc2)N2CCN(CCCCn3cccc3)CC2)cc1` [Example 8, 1-[4-(4-Diphenylmethyl-1-piperazinyl)butyl]pyrrole], in the series on death induced by 48/80, the ED50 came out at 6.7 mg/kg.

The values are drawn from patent US5166205A, “Derivatives of 1-diphenylmethyl piperazine and their use as antihistamines” (Laboratorios Del Dr. Esteve, S. A., priority 1990, dated 1992).
